This assay has as its target T1, human GPR68 (Homo sapiens, UniProt Q15743).
T1 construct: encoding full-length human GPR68 (uniprot ID: Q15743); expressed in transfected cells; host or cells: HEK293T
The assay can be described thus: GPR68 Biochemical Assay (Promega GloSensor cAMP assay, GPR68 antagonism). Conditions: 15 min. The format is cell-based. The gist of the method: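 Readout is GloSensor cAMP luminescence after 15 min at room temperature, normalised between pH 5.5 stimulation and pH 8.0 minimum controls; IC50 fitted sigmoidally. Test compounds, up to 50 μM final (9-point half-log, 0.5% DMSO), were co-added with pH 5.5 buffer to HEK293T cells transiently expressing full-length human GPR68 plus GloSensor.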
(Changes in cAMP serve as a functional read-out for many G protein-coupled receptors.)

[1] abbreviates: HEK293T cells transiently expressing hGPR68, antagonism of pH 5.5 stimulated cAMP, read-out: hGPR68 IC50.

Structures are written as SMILES. Like-named read-outs stand apart in the source and are kept apart here.

T1 sequence (Q15743 whole entry): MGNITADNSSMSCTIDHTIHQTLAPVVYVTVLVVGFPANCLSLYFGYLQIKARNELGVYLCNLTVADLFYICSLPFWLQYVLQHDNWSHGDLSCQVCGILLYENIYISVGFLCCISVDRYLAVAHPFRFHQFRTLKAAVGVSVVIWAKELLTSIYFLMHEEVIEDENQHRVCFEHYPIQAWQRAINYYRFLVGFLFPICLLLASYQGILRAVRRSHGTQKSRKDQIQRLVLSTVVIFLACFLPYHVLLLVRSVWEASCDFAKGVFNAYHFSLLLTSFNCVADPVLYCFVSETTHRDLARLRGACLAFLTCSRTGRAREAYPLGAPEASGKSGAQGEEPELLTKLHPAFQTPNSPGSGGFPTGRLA

On to `COCc1nn2c(C(=O)NCC3CC3(C)C)ccnc2c1C(N)=O` (stereo not shown) [Compound 77, N7-[(2,2-dimethylcyclopropyl)methyl]-2-(methoxymethyl)pyrazolo[1,5-a]pyrimidine-3,7-dicarboxamide], for which the IC50 under setting [1] fell in the range of 500 to 5000 nM.

In the case of `COCc1nn2c(C(=O)NC3COc4ccccc4C3)ccnc2c1C(N)=O` (stereo not shown) [Compound 78, N7-chroman-3-yl-2-(methoxymethyl)pyrazolo[1,5-a]pyrimidine-3,7-dicarboxamide], the IC50 under setting [1] was in the range of 50 to 500 nM.

`COCc1nn2c(C(=O)N[C@H]3CCc4ccccc4C3)ccnc2c1C(N)=O` [Compound 79, 2-(methoxymethyl)-N7-[(2S)-tetralin-2-yl]pyrazolo[1,5-a]pyrimidine-3,7-dicarboxamide]: the IC50 under setting [1] was less than 50 nM.

As for `COCc1nn2c(C(=O)NC3CCC(F)(F)CC3)ccnc2c1C(N)=O` [Compound 80, N7-(4,4-difluorocyclohexyl)-2-(methoxymethyl)pyrazolo[1,5-a]pyrimidine-3,7-dicarboxamide], the IC50 under setting [1] is less than 50 nM.

As for `COCc1nn2c(C(=O)NCC3CC3)ccnc2c1C(N)=O` [Compound 81, N7-(cyclopropylmethyl)-2-(methoxymethyl)pyrazolo[1,5-a]pyrimidine-3,7-dicarboxamide], the IC50 under setting [1] lay within 50 to 500 nM.

For the compound `COCc1nn2c(C(=O)NC3CCc4ccc(F)cc4C3)ccnc2c1C(N)=O` (stereo not shown) [Compound 82, N7-(7-fluorotetralin-2-yl)-2-(methoxymethyl)pyrazolo[1,5-a]pyrimidine-3,7-dicarboxamide], the IC50 under setting [1] is less than 50 nM.

With `COCc1nn2c(C(=O)NCc3ccc(F)cc3F)ccnc2c1C(N)=O` [Compound 83, N7-[(2,4-difluorophenyl)methyl]-2-(methoxymethyl)pyrazolo[1,5-a]pyrimidine-3,7-dicarboxamide], under setting [1], the IC50 is less than 50 nM.

As to `COCc1nn2c(C(=O)N[C@H]3CC[C@@H](C)CC3)ccnc2c1C(N)=O` [Compound 84, 2-(methoxymethyl)-N7-(cis-4-methylcyclohexyl)pyrazolo[1,5-a]pyrimidine-3,7-dicarboxamide], under setting [1], the IC50 lay in the range of 500 to 5000 nM.

`COCc1nn2c(C(=O)NC3Cc4cscc4C3)ccnc2c1C(N)=O` [Compound 85, N7-(5,6-dihydro-4H-cyclopenta[c]thiophen-5-yl)-2-(methoxymethyl)pyrazolo[1,5-a]pyrimidine-3,7-dicarboxamide]: the IC50 under setting [1] is less than 50 nM.

Turning to `COCc1nn2c(C(=O)N[C@H]3C[C@H](C)C3)ccnc2c1C(N)=O` [Compound 86, 2-(methoxymethyl)-N7-(trans-3-methylcyclobutyl)pyrazolo[1,5-a]pyrimidine-3,7-dicarboxamide], the IC50 under setting [1] is 50 to 500 nM.

As to `COCc1nn2c(C(=O)NC3Cc4ccc(Cl)cc4C3)ccnc2c1C(N)=O` (stereo not shown) [Compound 87, N7-(5-chloroindan-2-yl)-2-(methoxymethyl)pyrazolo[1,5-a]pyrimidine-3,7-dicarboxamide], the IC50 under setting [1] is less than 50 nM.

Consider `COCc1nn2c(C(=O)NC3Cc4ccccc43)ccnc2c1C(N)=O` (stereo not shown) [Compound 88, N7-(7-bicyclo[4.2.0]octa-1,3,5-trienyl)-2-(methoxymethyl)pyrazolo[1,5-a]pyrimidine-3,7-dicarboxamide], for which the IC50 under setting [1] was less than 50 nM.

As to `COCc1nn2c(C(=O)N3CCN(c4ncccc4C(F)(F)F)CC3)ccnc2c1C(N)=O` [Compound 89, 2-(methoxymethyl)-7-[4-[3-(trifluoromethyl)-2-pyridyl]piperazine-1-carbonyl]pyrazolo[1,5-a]pyrimidine-3-carboxamide], the half-maximal inhibitory concentration (IC50) under setting [1] fell in the range of 50000 to 100000 nM.

As to `COCc1nn2c(C(=O)NCC3(N(C)C)CCCCC3)ccnc2c1C(N)=O` [Compound 90, N7-[[1-(dimethylamino)cyclohexyl]methyl]-2-(methoxymethyl)pyrazolo[1,5-a]pyrimidine-3,7-dicarboxamide], the IC50 under setting [1] lay within 50000 to 100000 nM.

Take `COCc1nn2c(C(=O)NC3Cc4cccc(F)c4C3)ccnc2c1C(N)=O` (stereo not shown) [Compound 91, N7-(4-fluoroindan-2-yl)-2-(methoxymethyl)pyrazolo[1,5-a]pyrimidine-3,7-dicarboxamide]: under setting [1], the IC50 is less than 50 nM.

For the compound `COCc1nn2c(C(=O)NC3Cc4cc(F)cc(F)c4C3)ccnc2c1C(N)=O` (stereo not shown) [Compound 92, N7-(4,6-difluoroindan-2-yl)-2-(methoxymethyl)pyrazolo[1,5-a]pyrimidine-3,7-dicarboxamide], the IC50 under setting [1] is less than 50 nM.

In the case of `COCc1nn2c(C(=O)NC3CNc4ccccc4C3)ccnc2c1C(N)=O` (stereo not shown) [Compound 93, 2-(methoxymethyl)-N7-(1,2,3,4-tetrahydroquinolin-3-yl)pyrazolo[1,5-a]pyrimidine-3,7-dicarboxamide], the IC50 under setting [1] was less than 50 nM.

In turn, `COCc1nn2c(C(=O)N[C@H]3C[C@](C)(F)C3)ccnc2c1C(N)=O` [Compound 94, N7-(trans-3-fluoro-3-methyl-cyclobutyl)-2-(methoxymethyl)pyrazolo[1,5-a]pyrimidine-3,7-dicarboxamide] came in with an IC50 (hGPR68 IC50, HEK293T cells transiently expressing hGPR68, antagonism of pH 5.5 stimulated cAMP) of 50 to 500 nM.

Consider `COCc1nn2c(C(=O)N3Cc4ccccc4C3)ccnc2c1C(N)=O` [Compound 95, 7-(isoindoline-2-carbonyl)-2-(methoxymethyl)pyrazolo[1,5-a]pyrimidine-3-carboxamide], for which, under setting [1], the IC50 was 500 to 5000 nM.

Turning to `CCC(CNC(=O)c1ccnc2c(C(N)=O)cnn12)Oc1cccc(C)c1` (stereo not shown) [Compound 96, N7-[2-(3-methylphenoxy)butyl]pyrazolo[1,5-a]pyrimidine-3,7-dicarboxamide], the IC50 under setting [1] was in the range of 5000 to 50000 nM.

For `Cc1ccc(-c2ccncc2)cc1NC(=O)c1ccnc2c(C(N)=O)cnn12` [Compound 97, N7-[2-methyl-5-(pyridin-4-yl)phenyl]pyrazolo[1,5-a]pyrimidine-3,7-dicarboxamide], under setting [1], the IC50 fell in the range of 500 to 5000 nM.

For `COc1ccc2[nH]c(C(C)NC(=O)c3ccnc4c(C(N)=O)cnn34)nc2c1` (stereo not shown) [Compound 98, N7-[1-(5-methoxy-1H-1,3-benzodiazol-2-yl)ethyl]pyrazolo[1,5-a]pyrimidine-3,7-dicarboxamide], under setting [1], the IC50 is 5000 to 50000 nM.

As to `CC(COc1ccc(C(C)(C)C)cc1)NC(=O)c1ccnc2c(C(N)=O)cnn12` (stereo not shown) [Compound 99, N7-[1-(4-tert-butylphenoxy)propan-2-yl]pyrazolo[1,5-a]pyrimidine-3,7-dicarboxamide], the IC50 under setting [1] was 5000 to 50000 nM.

For the compound `NC(=O)c1cnn2c(C(=O)NCCC(F)(F)F)ccnc12` [Compound 100, N7-(3,3,3-trifluoropropyl)pyrazolo[1,5-a]pyrimidine-3,7-dicarboxamide], the IC50 under setting [1] lay within 5000 to 50000 nM.

In the case of `NC(=O)c1cnn2c(C(=O)NCC3CCC(F)(F)CC3)ccnc12` [Compound 101, N7-[(4,4-difluorocyclohexyl)methyl]pyrazolo[1,5-a]pyrimidine-3,7-dicarboxamide], the IC50 under setting [1] was 500 to 5000 nM.

Take `NC(=O)c1cnn2c(C(=O)NC3CC(F)(F)C3)ccnc12` [Compound 102, N7-(3,3-difluorocyclobutyl)pyrazolo[1,5-a]pyrimidine-3,7-dicarboxamide]: the IC50 under setting [1] lay within 500 to 5000 nM.

`NC(=O)c1cnn2c(C(=O)NC3CCC(F)(F)CC3)ccnc12` [Compound 103, N7-(4,4-difluorocyclohexyl)pyrazolo[1,5-a]pyrimidine-3,7-dicarboxamide]: the IC50 under setting [1] was in the range of 500 to 5000 nM.

For `COCc1nc2c(C(=O)NC3Cc4cccnc4C3)ccnn2c1C(N)=O` (stereo not shown) [Compound 104, N8-(6,7-dihydro-5H-cyclopenta[b]pyridin-6-yl)-2-(methoxymethyl)imidazo[1,2-b]pyridazine-3,8-dicarboxamide], under setting [1], the IC50 was 50 to 500 nM.

For orientation: IC50 means the point on the concentration scale where inhibition reaches its midpoint.

Values taken from US20260308159A1, “BICYCLIC HETEROARYLAMIDES HAVING GPR68 MODULATING ACTIVITY” (RECURSION PHARMACEUTICALS, INC., priority 2023, published 2026).
